Reference: patent US9522930B2, “Chartreusin analogues” (Leibniz-Institut Für Naturstoff-Forschung Und …, priority 2012, dated 2016)
Values after ≈ are worked out from the molar mass of the structure shown. Read-outs that look alike come from different tables or passages of the source.

Experiments:
[1] = tested on: Mycobacterium vaccae 10670; test: Antimicrobial activity (MIC), test strain Mycobacterium vaccae 10670; format: cell-based; conditions: Mycolicibacterium vaccae; Test strain: Mycobacterium vaccae 10670; read-out: Antimicrobial MIC value, Mycobacterium vaccae
From the text: Antimicrobial (MIC value [μM]), cytotoxic (CC50 [μM] for HeLa) and antiproliferative (GI50 [μM] for HUVEC, K-562, HT-29 and MEL-HO) activities of chartreusin and its derivatives. Test strain: Mycobacterium vaccae 10670.

[2] = tested on: defined DNA fragments (1.5 kb); test: Laser-induced DNA-adduct assay, gel electrophoresis with a specified DNA fragment; conditions: 1% agarose gel; for electrophoretic band shift of DNA fragment, irradiated: blue laser 405 nm, 20 mW, 30 sec
Protocol: However, the situation changed substantially under photoinducing conditions. A GaN laser has been used for an induced DNA-adduct assay because a laser warrants high spectral purity combined with a high power density. Furthermore, the emission wavelength (405 nm) fits to the absorption maximum of chartreusin, which is a prerequisite to efficiently activating the molecule.
For the assay defined DNA fragments (1.5 kb) were treated with either chartreusin or 1-vinylchartreusin, and the effect of blue laser irradiation was compared to negative controls incubated in the dark or with daylight.
DNA-Adduct formation was carried out using a pure specified DNA fragment with the following sequence:
8 μL of water, 2 μL of DNA (25.7 ng/μL) were either directly treated with 2 μL loading buffer or were treated additionally with 0.1 μL (1 mg/mL in DMSO) substrate. The solution was irradiated with a laser (405 nm, 20 mW) for 30 sec. and then treated with loading buffer. The DNA was loaded on 1% agarose gel with ethidium bromide operating at 120 V (FIG. 2).

[3] = tested on: human chronic myeloid leukemia cells K-562 (DSM ACC 10); test: Growth inhibition (antiproliferative effect) of K-562; format: cell-based
Protocol: (§2) Compounds were assayed against human umbilical vein endothelial cells HUVEC (ATCC CRL-1730) and human chronic myeloid leukemia cells K-562 (DSM ACC 10) for their antiproliferative effects (GI50) and against human cervix carcinoma cells HeLa (DSM ACC 57) for their cytotoxic effects (CC50) as previously described (Scherlach, K., Partida-Martinez, L. P., Dahse, H. M. & Hertweck, C. Antimitotic rhizoxin derivatives from a cultured bacterial endosymbiont of the rice pathogenic fungus Rhizopus microsporus. Journal of the American Chemical Society 128, 11529-11536 (2006)).

[4] = tested on: vancomycin-resistant Enterococcus (VRE); test: VRE assay (MIC); format: cell-based; conditions: read-out: MIC against VRE
[5] = tested on: Hs27 foreskin fibroblast cells (ATCC, CRL-1634); test: Growth inhibition of Hs27 in the presence or absence of light; format: cell-based, human; conditions: for GI50: Homo sapiens, 72 hours
From the text: In order to verify the extraordinary in vitro photo induced activity a human foreskin fibroblast cell line (Hs27) has been chosen to evaluate the antiproliferative activity against human cells. During this assay a control group without light has been tested under standard conditions. One group was irradiated with a very homogenous LED cluster under the same conditions. […] This indicates the high potential of this new chartreusin-like structure motive as a drug for epithel cell carcinomas. Not only superficial areas like the skin in case of melanoma can be irradiated also endoscopic accessible areas like the bladder, colon, esophageal or laryngeal cancers are conceivable for a treatment.
The Hs27 foreskin fibroblast cells (ATCC, CRL-1634) were grown in RPMI 1640 (CAMBREX 12-167F) supplemented with 500 μl/l gentamicin sulfate (Cambrex 17-518Z), 10% heat inactivated fetal bovine serum (PAA A15-104), at 37° C. in plastic flasks (NUNC) in a humidified atmosphere containing 5% CO2.
The adherent cells of Hs27 were harvested at the logarithmic growth phase after soft trypsinization using 0.25% trypsin in PBS containing 0.02% EDTA (Biochrom KG L2163).
Hs27 cells were seeded with 1×10^4 cells per 0.1 mL per well of the 96-well microplates (NUNC 167008). Then, the plates were prepared with dilutions of the compounds.
The influence of the different dilutions of compounds in the absence or presence of light (distance to the cells: 4 cm) were assayed for 72 hours at 37° C. in a humidified atmosphere containing 5% CO2. After incubation time, the effect of compounds in the absence or presence of light were analyzed in compare to negative control.
For this, the adherent Hs27 cells were fixed by glutaraldehyde (MERCK 1.04239.0250) and stained with a 0.05% solution of methylene blue (SERVA 29198) for 15 min. After gentle washing, the stain was eluted by 0.2 mL of 0.33 N HCl in the wells. The optical densities were measured at 660 nm in a microplate reader (Tecan “Sunrise”, Austria). Under the experimental conditions, the signals from the methylene blue are proportional to the number of viable cells.

[6] = tested on: human HT-29 colon adenocarcinoma cells (ACC 299); test: Growth inhibition of HT-29 in the presence or absence of light; format: cell-based
Protocol: (§1) The human HT-29 colon adenocarcinoma cells (ACC 299) and the human MEL-HO (ACC 62) melanoma cells were grown as previously described (Ueberschaar, N.; Dahse, H.-M.; Bretschneider, T.; Hertweck, C. Angew. Chem. Int. Ed. 2013, 52, 6185-6189).

in vitro = conditions: human
Protocol: as §2

[7] = tested on: human umbilical vein endothelial cells HUVEC (ATCC CRL-1730); test: Growth inhibition (antiproliferative effect) of HUVEC; format: cell-based; conditions: for GI50: Homo sapiens, read-out: antiproliferative GI50, HUVEC
Protocol: as §2

[8] = tested on: human MEL-HO (ACC 62) melanoma cells; test: Growth inhibition of MEL-HO in the presence or absence of light; format: cell-based
Protocol: as §1

[9] = tested on: methicillin-resistant Staphylococcus aureus (MRSA); test: Antibiotic activity against MRSA; format: cell-based
[10] = tested on: human cervix carcinoma cells HeLa (DSM ACC 57); test: Cytotoxicity against HeLa; conditions: HeLa, standard conditions
Protocol: as §2

[11] = Cytotoxicity against HeLa; conditions: human, HeLa cells (human cervix carcinoma, DSM ACC 57)
Protocol: as §2

[12] = Homo sapiens, K562; read-out: antiproliferative GI50, K-562
[13] = Hs27, with light vs without light
[14] = Homo sapiens, HT-29, 8 h, HT-29, 420 nm, 3 × 8 h, read-out: antiproliferative GI50, HT-29, 420 nm, 3 × 8 h
[15] = Homo sapiens, HT-29, HT-29, w/o light, read-out: antiproliferative GI50, HT-29, w/o light
[16] = Homo sapiens, HT-29, HT-29, with light (blue LED), read-out: GI50 with light, HT-29
[17] = Homo sapiens, HT-29, HT-29, without light (absence of light), read-out: GI50 without light, HT-29
[18] = 8 h, read-out: antiproliferative GI50, Mel-HO, 420 nm, 3 × 8 h
[19] = read-out: antiproliferative GI50, Mel-HO, w/o light
[20] = Homo sapiens, K562, read-out: antiproliferative GI50, K-562
[21] = Homo sapiens, HT-29, 8 h, read-out: antiproliferative GI50, HT-29, 420 nm, 3 × 8 h, HT-29, 420 nm, 3 × 8 h
[22] = Homo sapiens, HT-29, read-out: GI50 with light, HT-29, HT-29, with light (blue LED)
[23] = Homo sapiens, HT-29, read-out: GI50 without light, HT-29, HT-29, without light (absence of light)
[24] = Homo sapiens, HT-29, read-out: antiproliferative GI50, HT-29, w/o light, HT-29, w/o light
[25] = read-out: GI50 without light, HT-29, HT-29, without light (absence of light)

SMILES | MIC [1] | electrophoretic band shift of DNA fragment, irradiated [2] | GI50 [3, 12] | MIC [4] | GI50 [6, 14] | GI50 [6, 15] | GI50 [6, 16] | GI50 [6, 17] | CC50 (in vitro) | GI50 [7] | GI50 [8, 18] | GI50 [8, 19] | antibiotic activity against MRSA relative to chartreusin and ciprofloxacin [9] | GI50 [3, 20] | GI50 [6, 21] | GI50 [6, 22] | GI50 [6, 23] | GI50 [6, 24] | GI50 [6, 25] | also measured
CO[C@H]1[C@@H](O)[C@@H](C)O[C@H](O[C@H]2[C@H](Oc3cccc4c(O)c5c(=O)oc6ccc(C)c7c(=O)oc(c34)c5c67)O[C@H](C)[C@H](O)[C@@H]2O)[C@@H]1O [Chartreusin] | 1.2 µM (≈ 0.769 µg/mL) | electrophoretic properties of the DNA fragment could be fully reserved | 1.56 µM | 9.59 to 9.76 µM (≈ 6.14 to 6.25 µg/mL) | 7.65 µM | 7.96 µM | 7.65 µM | 7 to 9.4 µM | 12.6 µM | 6.24 µM | 2.34 µM | 1.56 µM | – | – | – | – | – | – | – | effect of light on antiproliferative activity, Hs27 [5, 13]: not affected by treatment with light
C=Cc1ccc2oc(=O)c3c(O)c4cccc(O[C@@H]5OC(C)[C@H](O)[C@H](O)C5O[C@H]5OC(C)[C@H](O)C(OC)[C@H]5O)c4c4oc(=O)c1c2c34 (stereo partly shown) [Vinylchartreusin, 1-Vinylchartreusin] | 4.8 µM (≈ 3.13 µg/mL) | clear band shift to a higher molecular mass | 3.06 µM | 9.59 to 9.76 µM (≈ 6.26 to 6.37 µg/mL) | 0.61 µM | 7.05 µM | 0.6 µM | 7 to 9.4 µM | – | 32.8 µM | 0.08 µM | 0.11 µM | as active as the natural product and are even more potent than the reference antibiotic ciprofloxacin | – | – | – | – | – | – | electrophoretic band shift of DNA fragment, not irradiated ([2]; not irradiated (dark or daylight)): no shift; activity relative to chartreusin and homochartreusin, K562 ([3]; K562, standard conditions): only slightly lower than chartreusin and homochartreusin; GI50 ([5]; light or radiation study, Hs27, irradiated with LED cluster, read-out: GI50 value with light, Hs27): 0.5 µg/mL (≈ 0.766 µM); GI50 ([5]; Hs27, without light, read-out: GI50 value without light, Hs27): 6.8 µg/mL (≈ 10.4 µM); GI50 with light lower than without light, Hs27 [5, 13]: more than 10 fold; GI50 ([6]; HT-29, without light (absence of light), read-out: GI50 without light, HT-29): 7.1 µM; activity relative to chartreusin and homochartreusin, HeLa [10]: only slightly lower than chartreusin and homochartreusin; CC50 [11]: 24.7 µM; less active than chartreusin, HUVEC ([7]; standard conditions (no photoinduction)): about 4 fold
C=Cc1cc2oc(=O)c3c(O)c4cccc(O[C@@H]5OC(C)[C@H](O)[C@H](O)C5O[C@H]5OC(C)[C@H](O)C(OC)[C@H]5O)c4c4oc(=O)c(c1)c2c34 (stereo partly shown) [(1→2)Abeovinylchartreusin, (1→2)-Abeo-vinylchartreusin] | 19.2 µM (≈ 12.5 µg/mL) | – | – | – | – | – | – | – | 33.7 µM | 16.9 µM | 0.48 µM | 1.03 µM | – | 4.9 µM | 3.06 µM | 3.1 µM | 7 to 9.4 µM | 9.35 µM | 9.4 µM | –
C#Cc1cc2oc(=O)c3c(O)c4cccc(O[C@@H]5OC(C)[C@H](O)[C@H](O)C5O[C@H]5OC(C)[C@H](O)C(OC)[C@H]5O)c4c4oc(=O)c(c1)c2c34 (stereo partly shown) [(1→2)Abeo-ethinylchartreusin, (1→2)-Abeo-ethynylchartreusin] | 19.2 µM (≈ 12.5 µg/mL) | – | – | – | – | – | – | – | 13.4 µM | 7.84 µM | 1.38 µM | 2 µM | as active as the natural product and are even more potent than the reference antibiotic ciprofloxacin | 3.23 µM | 1.69 µM | 1.7 µM | 7 to 9.4 µM | 8.61 µM | 8.6 µM | activity higher in the presence of light, HT-29 ([6]; HT-29, with light vs without light): 5 fold
